Measured values: US20180369244A1, “BTK Inhibitors to Treat Solid Tumors Through Modulation of the Tumor Microenvironment” (Acerta Pharma B.V., priority 2014, published 2018)

Key:
[1] = system: B cell receptor; experiment: Whole blood B cell receptor signalling, CD69 on CD19+ B cells; assay type: cell-based; conditions: 2 h incubation, anti-human IgD 18 h
Protocol: Blood from four healthy donors was incubated for 2 hours with the compounds shown over a concentration range, and then stimulated with anti-human IgD [10 μg/mL] for 18 hours. The mean fluorescent intensity (MFI) of CD69 (and CD86, data not shown) on gated CD19+ B cells was measured by flow cytometry. MFI values were normalized so that 100% represents CD69 level in stimulated cells without inhibitor, while 0% represents the unstimulated/no drug condition. […]

[2] = system: human platelet-mediated thrombosis; conditions: mouse, in vivo
Protocol: Injury to the vessel wall of arterioles ([…] diameter) was performed using a pulsed nitrogen dye laser (440 nm, Photonic Instruments) applied through a 20× water-immersion Olympus objective (LUMPlanF1, 0.5 numerical aperature (NA)) of a Zeiss Axiotech vario microscope. […] The extent of thrombus formation was assessed for 2 minutes after injury and the area (μm^2) of coverage determined (Image IQ, Andor Technology).
The BTK inhibitor-treated human platelets were fluorescently labeled and infused continuously through a catheter inserted into the femoral artery.

[3] = system: Raji cells; experiment: Rituximab ADCC chromium release assay; assay type: cell-based, human; conditions: 1 μM
Source text: Cell culture conditions were as follows. […] The HER18 cells were maintained in DEM supplemented with fetal bovine serum, penicillin-streptomycin and. Prior to assay, HER18 cells were harvested using trypsin-EDTA, washed with phosphate-buffered saline (PBS) containing 5% serum and viable cells were counted. For culture of primary target cells, peripheral blood from CLL patients was subject to density centrifugation to obtain peripheral blood mononuclear cells (PBMC). Cell preparations were washed and then subject to positive selection of CD5+CD19^+ CLL cells using magnetic beads (MACS, Miltenyi Biotech). Cell preparations were used fresh after selection. NK cells from CLL patients and healthy volunteers were enriched from peripheral blood collected in sodium citrate anti-coagulant tubes and then subject to density centrifugation. Removal of non NK cells was performed using negative selection by MACS separation. Freshly isolated NK cells were washed three times, enumerated, and then used immediately for ADCC assays.
ADCC assays were performed as follows. Briefly, target cells (Raji or primary CLL) were labeled by incubation at 37° C. with 100 μCi ^51Cr for 4 hours prior to co-culture with NK cells. Cells were washed, enumerated, and then added in triplicate to prepared 96-well plates containing treated NK cells at an effector:target (E:T) ratio of 25:1. […] The effect of NK cell natural cytotoxicity was assessed in wells containing no rituximab. Cultures were incubated at 37° C. for 4 hours, and then centrifuged. Supernatants were harvested and ^51Cr release was measured by liquid scintillation counting. All experiments were performed in triplicate.

[4] = system: CD8+ T cells; experiment: Cytotoxic T cell (CTL) assay; assay type: cell-based; conditions: 500 nM
Protocol: CD8^+ T cells have at least two primary effector functions: (1) produce large amounts of IFN-γ (which activates macrophages), and (2) cytolytic activity. […] The targets were B lymphoblasts from lipopolysaccharide (LPS) treated cultures. The assay was performed by incubating different ratios of effectors:targets for 4 hours.

[5] = system: GPVI platelet aggregation; experiment: GPVI platelet aggregation (convulxin-induced); assay type: cell-based, human
Protocol: GPVI platelet aggregation was measured for Formula (II) and Formula (X) (ibrutinib). Blood was obtained from untreated humans, and platelets were purified from […] by centrifugation. Cells were resuspended to a final concentration of […] in buffer containing 145 mmol/L NaCl, 10 mmol/L HEPES, 0.5 mmol/L Na2HPO4, 5 mmol/L KCl, 2 mmol/L MgCl2, 1 mmol/L CaCl2, and 0.1% glucose, at pH 7.4. Stock solutions of Convulxin (CVX) GPVI were prepared on the day of experimentation and added to platelet suspensions 5 minutes (37° C., 1200 rpm) before the induction of aggregation. Aggregation was assessed with a Chronolog Lumi-Aggregometer (model 540 VS; Chronolog, Havertown, Pa.) and permitted to proceed for 6 minutes after the addition of agonist. The results are reported as maximum percent change in light transmittance from baseline with platelet buffer used as a reference.
In FIG. 23, the results of CVX-induced (250 ng/mL) human platelet aggregation results before and 15 minutes after administration of the BTK inhibitors to 6 healthy individuals are shown.

[6] = system: CD8+ T cells; experiment: CD8+ T cell viability; assay type: cell-based; conditions: 4 days culture
Protocol: Total T cells were plated on anti-TCR and anti-CD28 coated wells in the presence of both BTK inhibitors. Neutral culture conditions were used that will not polarize T cells to a helper lineage. The cells are grown for 4 days and are then stained with anti-CD4, anti-CD8 and LIVE/DEAD reagent to determine if the drugs have selective effects on either the CD4^+ or CD8^+ cells. Statistical significance was calculated using the Mann Whitney T-test. […]

[7] = system: CD4+ T cells; experiment: Th17 and Treg development from CD4+ T cells; assay type: cell-based
Protocol: Enriched CD4^+ T cells are plated on 24-well culture dishes that have been precoated 2 hr with 250 μL anti-TCRβ (0.5 μg/mL) plus anti-CD28 (5 μg/mL) at 37° C. in PBS. The cells are then supplemented with media containing BTK inhibitors along with the skewing cytokines as indicated in the following. The Th17 and Treg cultures are grown for 4 days before analysis. The cells are maintained for an additional 3 days with skewing cytokines (Th17; 20 ng/mL IL-6, 0.5 ng/mL TGF-β, 5 μg/mL IL-4, 5 μg/mL IFN-γ and Treg; 0.5 ng/mL TGF-β, 5 μg/mL IL-4, 5 μg/mL IFN-γ) and are supplemented with IL2 as a growth factor.

[8] = system: CLL, MCL, NHL patients; conditions: monotherapy, dose levels through 840 mg; cited from earlier work
[9] = system: NK cells; experiment: Antibody-dependent NK cell degranulation (CD107a flow cytometry); assay type: cell-based, human; conditions: DHL-4 target cells
[10] = system: CLL; conditions: cited from earlier work
[11] = Phase 1 portion, relapsed/refractory CLL (n=13)

Compound | EC50 [1] | effect on thrombus formation [2] | rituximab ADCC, NK cell activity ([3]; FIG. 31) | antibody-dependent lysis of rituximab-coated Raji cells ([3]; healthy donor NK cells) | CD8+ T cell function as % cytotoxicity [4] | CD8+ T cell function as IFN-γ levels [4] | GPVI platelet aggregation ([5]; FIG. 22 and FIG. 23) | IC50 ([5]; Homo sapiens, Platelet, FIG. 22) | CD8+ T cell viability [6] | Th17 and Treg development [7] | maximum tolerated dose (MTD) [8] | reduction of rituximab-stimulated NK cell degranulation [9] | response rate ([10]; Phase 1, previously treated CLL, monotherapy) | infusion related reactions, Grade 3 [10, 11] | patients with all grade AE (infusion related reactions) [10, 11] | IRR cases developing symptoms of hypotension ([10]; Phase 2 portion) | hypotension cases that were Grade 3 reactions ([10]; Phase 2 portion) | patients who developed IRR ([10]; Phase 2 portion)
C=CC(=O)Nc1cccc(Nc2nc(Nc3ccc(OCCOC)cc3)ncc2F)c1 [CC-292, N-(3-((5-fluoro-2-((4-(2-methoxyethoxy)phenyl)amino)pyrimidin-4-yl)amino)phenyl)acrylamide] | 121 nM | interfere with thrombus formation | – | – | – | – | – | – | – | – | – | – | – | – | – | – | – | –
C=CC(=O)N1CCC[C@@H](n2nc(-c3ccc(Oc4ccccc4)cc3)c3c(N)ncnc32)C1 [ibrutinib, 1-[(3R)-3-[4-amino-3-(4-phenoxyphenyl)-1H-pyrazolo[3,4-d]pyrimidin-1-yl]piperidin-1-yl]prop-2-en-1-one, reference compound] | 6.1 nM | interfere with thrombus formation | completely inhibited ADCC | strongly inhibited the antibody-dependent lysis of target cells | affects CD8^+ T cell function | significant loss of function | significantly inhibits GPVI platelet aggregation | 130 nM | strong, negative effect | a profound inhibition of Th17 cells and an increase in Treg development | No maximum tolerated dose (MTD) was apparent | ~50% | – | – | – | – | – | –
obinutuzumab: humanized monoclonal antibody directed against CD20, type II glycoengineered | – | – | – | – | – | – | – | – | – | – | – | – | 62% | 15% | 100% | 60% | 25% | 95%
